Laboratory results as given in patent US20240103015A1, “METHODS FOR ASSAYING SLC34A2 EXPRESSION IN MUSCLE TISSUE AND TREATING FACIOSCAPULOHUMERAL MUSCULAR DYSTROPHY” (University of Maryland, Baltimore, priority 2022, published 2024).

Experiments:
[1] = tested on: SLC34A2 protein in C6 (FSHD) myotubes; assay: Immunoblot of SLC34A2 protein in cultured FSHD myotubes treated with p38 kinase inhibitors; assay type: cell-based, human; settings: for expression of the SLC34A2 protein: cultured C6 (FSHD) myotubes
Source text: (i): We have adapted and improved our procedures to assay for SLC34A2 mRNA and protein in myotubes of immortalized myoblasts derived from FSHD and healthy individuals. To establish the validity of our assays, we use losmapimod and other p38 kinase inhibitors.

[2] = tested on: SLC34A2 protein at the surface of FSHD myotubes; assay: Surface labeling of SLC34A2 protein on FSHD myotubes with and without losmapimod; assay type: cell-based, human
Source text: FIG. 20. Labeling of SLC34A2 protein at the surface of FSHD myotubes, with and without treatment with losmapimod. […] FIG. 21. Relative intensities of surface labeling of SLC34A2 in FSHD myotubes with and without losmapimod treatment, as in FIG. 20, normalized to the desmin signal in each ROI. *, p<0.05.

[3] = tested on: DUX4, SLC34A2 and other downstream gene products of DUX4; assay: Relative mRNA expression of DUX4 and downstream genes in FSHD myotubes with and without losmapimod; assay type: cell-based, human
Source text: FIG. 22. Relative mRNA expression of DUX4, SLC34A2, and other downstream gene products of DUX4, in the presence and absence of losmapimod. *, p<0.05, **, p<0.01.

[4] = tested on: SLC34A2; settings: cited from earlier work
[5] = molecular target: T1, SLC34A2 (Homo sapiens, UniProt O95436); assay: Immunofluorescent labeling of frozen sections of xenografts with MX35; assay type: binding; settings: control grafts generated with A4 cells
T1 construct: from tissue; host or cells: Xenografts of human FSHD myoblasts (C6, 15A; controls A4, 15V) in the tibialis anterior of NRG mice
T1 sequence (O95436 1-689 isoform O95436-2 D633G): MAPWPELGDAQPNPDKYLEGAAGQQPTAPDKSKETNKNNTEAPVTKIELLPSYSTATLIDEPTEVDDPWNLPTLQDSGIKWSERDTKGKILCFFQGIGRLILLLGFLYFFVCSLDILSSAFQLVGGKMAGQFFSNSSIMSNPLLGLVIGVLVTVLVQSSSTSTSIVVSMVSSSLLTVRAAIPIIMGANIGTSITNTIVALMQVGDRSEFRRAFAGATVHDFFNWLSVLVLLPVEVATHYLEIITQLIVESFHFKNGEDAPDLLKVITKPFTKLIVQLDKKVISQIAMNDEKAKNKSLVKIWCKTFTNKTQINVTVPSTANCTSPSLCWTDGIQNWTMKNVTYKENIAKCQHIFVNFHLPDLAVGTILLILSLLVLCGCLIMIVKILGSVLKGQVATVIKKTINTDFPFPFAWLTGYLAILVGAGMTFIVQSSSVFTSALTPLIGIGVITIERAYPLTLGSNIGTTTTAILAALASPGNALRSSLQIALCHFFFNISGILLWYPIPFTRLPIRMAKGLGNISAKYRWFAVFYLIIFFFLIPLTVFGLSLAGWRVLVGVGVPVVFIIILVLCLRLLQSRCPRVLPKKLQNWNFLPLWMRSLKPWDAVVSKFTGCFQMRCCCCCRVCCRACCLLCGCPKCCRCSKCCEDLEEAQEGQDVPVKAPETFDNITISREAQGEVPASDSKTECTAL
Source text: (§1) Antibodies: MX35 is a mouse mAb from the Sloan-Kettering Research Institute. Biotinylation and conjugation of MX35 or its Fab fragments, to Alexa fluorophores from InVitrogen/ThermoFisher, will follow manufacturer's instructions. Rabbit mAbs to the N- and C-terminal regions of SLC34A2 (Cell Signaling) are used at 1:100 dilutions. Fluorescent secondary antibodies and streptavidin are available commercially.
(§2) Immunofluorescence: Mice will be euthanized and blood samples taken. Muscles will be collected and either snap frozen or processed for PCR or immunoblotting. Frozen muscles will be-sectioned on a cryostat and labeled for biotinylated MX35 with fluorescent streptavidin or antibodies to biotin. Double labeling with rabbit anti-SLC34A2 antibodies will be performed to confirm the identity of positive fibers. Additional labeling with human-specific antibodies (e.g., to β-spectrin, lamin followed by isoform-specific secondary antibodies will be used to confirm the identify of fibers of human origin in the xenografts, as: necessary.
(§3) Results: We used immortalized C6 myoblasts (14) to generate xenografts in the Tibialis anterior muscles of NRG mice. Cross sections of the graft show similar immunofluorescent labeling by MX35 and a rabbit Ab to the C-terminus of SLC34A2 (FIG. 6). […]

[6] = molecular target: T2, SLC34A2 (Homo sapiens, UniProt O95436, D634G); assay: as above; assay type: binding; settings: FSHD (C6) xenografts in Tibialis anterior of NRG mice
T2 construct: from tissue; host or cells: Xenografts of human FSHD myoblasts (C6, 15A; controls A4, 15V) in the tibialis anterior of NRG mice
T2 sequence (O95436 1-689 isoform O95436-2 D633G): T1 sequence (O95436 1-689 isoform O95436-2 D633G)
Source text: as §1, §2, §3

[7] = molecular target: T2, SLC34A2; assay: Immunoprecipitation of SLC34A2 from extracts of FSHD muscle cells in culture; assay type: binding
Source text: FIG. 13. Immunoblots of FSHD and control myotubes with antibodies to the C- and N-termini of SLC34A2 (A) and after immunoprecipitation with MX35 (B), followed by blotting.

[8] = molecular target: T2, SLC34A2; assay: Immunolabeling of living FSHD (C6) and control (A4) myotubes; assay type: binding; settings: FSHD (C6) vs control (A4) myotubes
Source text: FIG. 14. Immunolabeling of living FSHD (C6) and control (A4) myotubes with MX35 and control IgG. DAPI was used as a counterstain (blue). Bound MX35 and control IgG were recognized with Alexa-568 labeled goat anti-mouse IgG (red).

[9] = molecular target: T3, SLC34A2 in FSHD xenografts (Homo sapiens, UniProt O95436); assay: IVIS imaging of living mice carrying xenografts after injection of fluorescent antibody; assay type: in vivo, mouse; settings: living mice (IVIS) and frozen sections
T3 construct: from tissue; host or cells: Xenografts of human FSHD myoblasts (C6, 15A; controls A4, 15V) in the tibialis anterior of NRG mice
T3 sequence (O95436 1-689 isoform O95436-2 D633G): T1 sequence (O95436 1-689 isoform O95436-2 D633G)
Source text: (ii): Given the level of variability we observe in our xenografts, and the small numbers of FSHD myofibers in the grafts generated by some of the FSHD cell lines we have been studying, we thought it important to be able to monitor the diseased myofibers in living mice. Our approach is to inject mice with an infrared fluorescent version of a monoclonal antibody to SLC34A2, MX-35, that recognizes an extracellular epitope of the protein and that has been used clinically with patients with ovarian cancer. This approach should allow us to estimate the lifetime of the fibers once they become positive for SLC34A2, and, using different IR fluorophores, what the rate of appearance of newly positive fibers is in our grafts. It could also be used to test potential treatments for FSHD both in mice and in clinical trials with FSHD patients.
Injection and Imaging: Mice will be injected IV with fluorescent mAb or Fab fragments either through the tail vein or retroorbitally, with 150 μg of the biotinylated antibodyfluorophore conjugate in […]. Imaging in a Xenogen IVIS Spectrum Optical In Vivo imaging System (Perkin Elmer), will begin 2 hr later, repeated daily for 3 days, and at longer intervals thereafter. Repeated injections will also be done at regular intervals, to be determined, based on the levels of the antibody-conjugate remaining in circulation.

[10] = tested on: SLC34A2; settings: epithelia and cancers; cited from earlier work
[11] = tested on: DUX4 target genes (MBD3L2, LEUTX, SLC34A2); assay: qPCR of DUX4 target gene mRNAs in FSHD xenografts of treated mice; assay type: in vivo, mouse
Description: Xenografts are treated starting at 5 weeks after initial engraftment. Dosage is 10 mg/kg BID, injected IP.

[12] = 10 mg/kg BID IP from 5 weeks after engraftment

## Cc1c(F)cc(C(=O)NC2CC2)cc1-c1ccc(C(=O)NCC(C)(C)C)cn1 [losmapimod]
[1]
  expression of the SLC34A2 protein: Decreased expression
[1]; cultured FSHD myotubes, immunoblots
  SLC34A2 protein level: −2 fold
[2]
  surface labeling signal of SLC34A2 protein: reduces this signal significantly
[3]
  mRNAs encoding DUX4, SLC34A2 and other gene products downstream of DUX4: reduces the mRNAs encoding DUX4 and SLC34A2
[4]
  expression of SLC34A2: reduces the expression of SLC34A2

## MX35
[5]
  labeling of control graft sections: no labeling
[6]
  recognition of SLC34A2 in xenograft sections: recognizes SLC34A2 in mature FSHD skeletal muscle
[7]
  immunoprecipitation of SLC34A2: can immunoprecipitated SLC34A2
[8]
  labeling of the surface of living myotubes: specifically labels the surface of intact living FSHD myotubes, but not control, healthy myotubes
[9]
  detection of antibody-tagged fibers in grafts: can be detected in FSHD but not control grafts
[10]
  binding to SLC34A2: bind SLC34A2 present in epithelia and cancers

## CC(C)(C)Cn1c(N)nc2ccc(-c3[nH]c(C(C)(C)C)nc3-c3ccc(F)cc3)nc21 [LY222820, ralimetinib]
[11]
  expression of the mRNAs encoding DUX4 target genes, including SLC34A2: reduces expression
[11]; [12]
  LEUTX reduction in expression: 60-70%
  MBD3L2 reduction in expression: 60-70%
  SLC34A2 reduction in expression: 41%
[1]
  expression of the SLC34A2 protein: Decreased expression
